Consider 17 compounds from patent US10947252B2, “Inhibitors of KEAP1-Nrf2 protein-protein interaction” (Janssen Pharmaceutica NV, priority 2018, dated 2021).

The test system of assay [1] is Glo-Response ARE-luc2P HEK293 cell line. Nature of the assay: ARE luciferase reporter cell-based assay.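 Also: luciferase signal tracks Nrf2 activation of the ARE once compounds disrupt KEAP1-Nrf2 binding, read with One-Glo reagent, DMSO serving as low control.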 As to conditions: average of results obtained.
Assay [2] concerns the target Kelch domain of human KEAP1 (321-624 aa) (Homo sapiens (Human), UniProt Q14145). Nature of the assay: KEAP1 KELCH ThermoFluor binding assay.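 Also: Ligand-induced melting temperature shift of E. coli-expressed KEAP1 Kelch protein, Kd estimated from concentration-response curves of ΔTm.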 Particulars: KEAP Kelch […], 1,8-ANS, pH 7.0, average of results obtained, read-out: Tf Kd.

Sequence of Kelch domain of human KEAP1 (321-624 aa) (Q14145 321-624): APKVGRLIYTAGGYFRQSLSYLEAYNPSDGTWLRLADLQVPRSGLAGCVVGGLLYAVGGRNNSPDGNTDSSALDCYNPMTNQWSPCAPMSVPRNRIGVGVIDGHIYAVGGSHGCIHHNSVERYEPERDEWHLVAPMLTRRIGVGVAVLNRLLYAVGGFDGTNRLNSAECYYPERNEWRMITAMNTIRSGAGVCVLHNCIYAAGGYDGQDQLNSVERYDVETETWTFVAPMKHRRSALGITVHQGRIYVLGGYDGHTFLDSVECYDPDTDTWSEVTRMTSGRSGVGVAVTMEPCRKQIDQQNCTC

Consider `Cc1ccc(C(CC(=O)O)c2ccc3c(nnn3CC3CC3)c2C)cc1CN1C[C@H]2CCCCN2c2ncccc2S1(=O)=O` (mixture of isomers) [Example 234, (R/S)-3-(1-(Cyclopropylmethyl)-4-methyl-1H-benzo[d][1,2,3]triazol-5-yl)-3-(3-(((*R)-5,5-dioxido-7,7a,8,9,10,11-hexahydro-6H-dipyrido[2,1-d:2′,3′-f][1,2,5]thiadiazepin-6-yl)methyl)-4-methylphenyl)propanoic Acid], for which the concentration giving a half-maximal response (EC50) in assay [1] (Homo sapiens, HEK293, 24 h) amounted to 3.3 nM. Moreover, the equilibrium dissociation constant (Kd) in assay [2] was under 1 nM.

The compound `CCn1nnc2c(C)c(C(CC(=O)O)c3ccc(C)c(CN4CC5(COC5)Oc5ncccc5S4(=O)=O)n3)ccc21` (racemic) [Example 240, (R/S)-3-(6-((1′,1′-Dioxidospiro[oxetane-3,4′-pyrido[2,3-b][1,4,5]oxathiazepin]-2′(3′H)-yl)methyl)-5-methylpyridin-2-yl)-3-(1-ethyl-4-methyl-1H-benzo[d][1,2,3]triazol-5-yl)propanoic Acid] displayed a concentration giving a half-maximal response (EC50) in assay [1] (Homo sapiens, HEK293, 24 h) of 85 nM. Besides, the Kd in assay [2] is under 1 nM.

With `CCn1nnc2c(C)c(C(CC(=O)O)c3ccc(C)c(CN4CC5(CC5)Oc5ncccc5S4(=O)=O)n3)ccc21` (racemic) [Example 243, (R/S)-3-(6-((1′,1′-Dioxidospiro[cyclopropane-1,4′-pyrido[2,3-b][1,4,5]oxathiazepin]-2′(3′H)-yl)methyl)-5-methylpyridin-2-yl)-3-(1-ethyl-4-methyl-1H-benzo[d][1,2,3]triazol-5-yl)propanoic Acid], the EC50 in assay [1] (Homo sapiens, HEK293, 24 h) is 35 nM. Moreover, the dissociation constant Kd in assay [2] is under 1 nM.

`Cc1cnc2c(c1)S(=O)(=O)N(Cc1cc(C(c3ccn4c(C5CC5)nnc4c3C)C(C)(C)C(=O)O)ccc1C)CC1(CC1)O2` (racemic) [Example 391, (R/S)-3-(3-Cyclopropyl-8-methyl-[1,2,4]triazolo[4,3-a]pyridin-7-yl)-2,2-dimethyl-3-(4-methyl-3-((8′-methyl-1′,1′-dioxidospiro[cyclopropane-1,4′-pyrido[2,3-b][1,4,5]oxathiazepin]-2′(3′H)-yl)methyl)phenyl)propanoic Acid] returned a half-maximal effective concentration (EC50) in assay [1] (Homo sapiens, HEK293, 24 h) of 26.7 nM. The Kd in assay [2] was under 1 nM.

In assay [1] (Homo sapiens, HEK293, 24 h), `Cc1cnc2c(c1)S(=O)(=O)N(Cc1cc(C(c3ccc4c(nnn4C4CC4)c3C)C(C)(C)C(=O)O)cnc1C)CC1(CC1)O2` (racemic) [Example 394, (R/S)-3-(1-Cyclopropyl-4-methyl-1H-benzo[d][1,2,3]triazol-5-yl)-2,2-dimethyl-3-(6-methyl-5-((8′-methyl-1′,1′-dioxidospiro[cyclopropane-1,4′-pyrido[2,3-b][1,4,5]oxathiazepin]-2′(3′H)-yl)methyl)pyridin-3-yl)propanoic Acid] gave an EC50 of 40.1 nM. Moreover, the equilibrium dissociation constant (Kd) in assay [2] was under 1 nM.

As for `Cc1ccc(C(CC(=O)O)c2ccc3c(nnn3C3CC3)c2C)cc1CN1C[C@@H]2CCCCN2c2ncccc2S1(=O)=O` (mixture of isomers) [Example 397, (R/S)-3-(1-Cyclopropyl-4-methyl-1H-benzo[d][1,2,3]triazol-5-yl)-3-(3-(((*S)-5,5-dioxido-7,7a,8,9,10,11-hexahydro-6H-dipyrido[2,1-d:2′,3′-f][1,2,5]thiadiazepin-6-yl)methyl)-4-methylphenyl)propanoic Acid], the concentration for a half-maximal effect (EC50) in assay [1] (Homo sapiens, HEK293, 24 h) worked out at 11 nM. For the same compound, the equilibrium dissociation constant (Kd) in assay [2] is under 1 nM.

`CCn1nnc2c(C)c(C(CC(=O)O)c3ccc(C)c(CN4CC5(CCOCC5)Oc5ccc(F)cc5S4(=O)=O)n3)ccc21` (racemic) [Example 417, 3-(1-Ethyl-4-methyl-1H-benzo[d][1,2,3]triazol-5-yl)-3-(6-((8-fluoro-1,1-dioxido-2′,3′,5′,6′-tetrahydrospiro[benzo[b][1,4,5]oxathiazepine-4,4′-pyran]-2(3H)-yl)methyl)-5-methylpyridin-2-yl)propanoic acid] gave an EC50 in assay [1] (Homo sapiens, HEK293, 24 h) of 1.77 nM. Further, the Kd in assay [2] is under 1 nM.

Take `Cc1ccc(C(CC(=O)O)c2ccn3c(C(F)(F)F)nnc3c2C)nc1CN1CC2(CC2)Oc2ncccc2S1(=O)=O` (racemic) [Example 481, (R/S)-3-(6-((1′,1′-Dioxidospiro[cyclopropane-1,4′-pyrido[2,3-b][1,4,5]oxathiazepin]-2′(3′H)-yl)methyl)-5-methylpyridin-2-yl)-3-(8-methyl-3-(trifluoromethyl)-[1,2,4]triazolo[4,3-a]pyridin-7-yl)propanoic Acid]: in assay [1] (Homo sapiens, HEK293, 24 h), the EC50 came out at 1290 nM. The dissociation constant (Kd) in assay [2] is under 1 nM.

Compound `Cc1cnc2c(c1)S(=O)(=O)N(Cc1cc(C(c3ccn4c(C(F)F)nnc4c3C)C(C)(C)C(=O)O)ccc1C)CC1(CCOCC1)O2` (racemic) [Example 575, (R/S)-3-(3-(Difluoromethyl)-8-methyl-[1,2,4]triazolo[4,3-a]pyridin-7-yl)-2,2-dimethyl-3-(4-methyl-3-((8′-methyl-1′,1′-dioxido-2,3,5,6-tetrahydrospiro[pyran-4,4′-pyrido[2,3-b][1,4,5]oxathiazepin]-2′(3′H)-yl)methyl)phenyl)propanoic Acid] registered a concentration giving a half-maximal response (EC50) in assay [1] (Homo sapiens, HEK293, 24 h) of 6.62 nM. Moreover, the Kd in assay [2] was under 1 nM.

`Cc1cnc2c(c1)S(=O)(=O)N(Cc1cc(C(c3ccn4c(C(F)(F)F)nnc4c3C)C(C)(C)C(=O)O)cnc1C)CC1(CCOCC1)O2` (racemic) [Example 584, (R/S)-2,2-Dimethyl-3-(8-methyl-3-(trifluoromethyl)-[1,2,4]triazolo[4,3-a]pyridin-7-yl)-3-(6-methyl-5-((8′-methyl-1′,1′-dioxido-2,3,5,6-tetrahydrospiro[pyran-4,4′-pyrido[2,3-b][1,4,5]oxathiazepin]-2′(3′H)-yl)methyl)pyridin-3-yl)propanoic Acid] returned an EC50 in assay [1] (Homo sapiens, HEK293, 24 h) of 478 nM. In assay [2], the Kd was under 1 nM.

In assay [1] (Homo sapiens, HEK293, 24 h), `Cc1cnc2c(c1)S(=O)(=O)N(Cc1cc(C(c3ccn4c(C(F)(F)F)nnc4c3C)C(C)(C)C(=O)O)ncc1C)CC1(CC1)O2` (racemic) [Example 587, (R/S)-2,2-Dimethyl-3-(8-methyl-3-(trifluoromethyl)-[1,2,4]triazolo[4,3-a]pyridin-7-yl)-3-(5-methyl-4-((8′-methyl-1′,1′-dioxidospiro[cyclopropane-1,4′-pyrido[2,3-b][1,4,5]oxathiazepin]-2′(3′H)-yl)methyl)pyridin-2-yl)propanoic Acid] registered an EC50 of 17.4 nM. Besides, the Kd in assay [2] was under 1 nM.

On to `Cc1ccc([C@@H](CC(=O)O)c2ccc3c(nnn3CC3CC3)c2C)cc1CN1C[C@]2(C)CCCN2c2ncccc2S1(=O)=O` (relative stereo) [Example 11, 3-(1-(Cyclopropylmethyl)-4-methyl-1H-benzo[d][1,2,3]triazol-5-yl)-3-(4-methyl-3-(((*S)-7a-methyl-5,5-dioxido-7a,8,9,10-tetrahydropyrido[2,3-f]pyrrolo[2,1-d][1,2,5]thiadiazepin-6(7H)-yl)methyl)phenyl)propanoic Acid], for which the EC50 in assay [1] (Homo sapiens, HEK293, 24 h) worked out at 4.2 nM. Further, the dissociation constant (Kd) in assay [2] turned out to be 0.024 nM.

On to `Cc1ccc([C@H](c2cc(C)n3c(C(F)(F)F)nnc3c2C)C(C)C(=O)O)cc1CN1C[C@@H]2CCCCN2c2ncccc2S1(=O)=O` (relative stereo) [Example 133, (3*R)-3-(5,8-Dimethyl-3)-(trifluoromethyl)-[1,2,4-triazolo[4,3-a]pyridine-7-yl)-3-(3-(((*S)-5,5-dioxido-7,7a,8,9,10,11-hexahydro-6H-dipyrido[2,1-d:2′,3′-f][1,2,5]thiadiazepin-6-yl)methyl)-4-methylphenyl)-2-methylpropanoic Acid], for which, in assay [1] (Homo sapiens, HEK293, 24 h), the midpoint of the response, the EC50, lay at 2 nM. For the same compound, the Kd in assay [2] is under 1 nM.

In assay [1] (Homo sapiens, HEK293, 24 h), `Cc1ccc([C@@H](c2cc(C)n3c(C(F)(F)F)nnc3c2C)C(C)C(=O)O)cc1CN1C[C@@H]2CCCCN2c2ncccc2S1(=O)=O` (relative stereo) [Example 134, (3*S)-3-(5,8-Dimethyl-3)-(trifluoromethyl)-[1,2,4-triazolo[4,3-a]pyridine-7-yl)-3-(3-(((*S)-5,5-dioxido-7,7a,8,9,10,11-hexahydro-6H-dipyrido[2,1-d:2′,3′-][1,2,5]thiadiazepin-6-yl)methyl)-4-methylphenyl)-2-methylpropanoic Acid] returned an EC50 of 61.3 nM. Further, the dissociation constant (Kd) in assay [2] was under 1 nM.

Regarding `Cc1ccc([C@H](CC(=O)O)c2cc(OC(F)F)c3c(c2)nnn3C)cc1CN1C[C@H]2CCCN2c2ncccc2S1(=O)=O` (relative stereo) [Example 247, (*S)-3-(7-(Difluoromethoxy)-1-methyl-1H-benzo[d][1,2,3]triazol-5-yl)-3-(3-(((R)-5,5-dioxido-7a,8,9,10-tetrahydropyrido[2,3-f]pyrrolo[2,1-d][1,2,5]thiadiazepin-6(7H)-yl)methyl)-4-methylphenyl)propanoic Acid], in assay [1] (24 hours), the EC50 was 225 nM. The dissociation constant Kd in assay [2] was under 1 nM.

Consider `Cc1ccc([C@H](CC(=O)O)c2cc(OC(F)F)c3c(c2)nnn3C)cc1CN1C[C@H]2CCCCN2c2ncccc2S1(=O)=O` (single isomer, unassigned) [Example 2, (*S)-3-(7-(Difluoromethoxy)-1-methyl-1H-benzo[d][1,2,3]triazol-5-yl)-3-(3-(((*R)-5,5-dioxido-7,7a,8,9,10,11-hexahydro-6H-dipyrido[2,1-d:2′,3′-f][1,2,5]thiadiazepin-6-yl)methyl)-4-methylphenyl)propanoic Acid], for which the midpoint of the response in assay [1] (Homo sapiens, HEK293, 24 h), the EC50, lay at 180 nM. The Kd in assay [2] was found to be 0.162 nM.

Take `Cc1ccc([C@@H](CC(=O)O)c2cc(OC(F)F)c3c(c2)nnn3C)cc1CN1C[C@H]2CCCCN2c2ncccc2S1(=O)=O` (single isomer, unassigned) [Example 3, (*R)-3-(7-(Difluoromethoxy)-1-methyl-1H-benzo[d][1,2,3]triazol-5-yl)-3-(3-(((*R)-5,5-dioxido-7,7a,8,9,10,11-hexahydro-6H-dipyrido[2,1-d:2′,3′-f][1,2,5]thiadiazepin-6-yl)methyl)-4-methylphenyl)propanoic Acid]: a half-maximal effect in assay [1] (Homo sapiens, HEK293, 24 h) (EC50) was put at 35 nM. The dissociation constant Kd in assay [2] was 0.041 nM.
